Data taken from publication PMC2360244 (British Journal of Cancer, 2007).

Experiments:
[1] = system: HDAC isotypes in partially purified extract from rat liver (MAL, unselective); conditions: read-out: Liver extract MAL unselective IC50, substrate MAL
Description: After centrifugation, the cleared extract was used for immunoprecipitation of HDAC1. […] Incubation was performed for 45 min at 37°C (immunoprecipitates) or 30 min at room temperature (HeLa nuclear extract). Before addition of substrate, HDAC inhibitors were added at increasing concentrations and preincubated for 10 min at room temperature. After incubation, the reaction was quenched with 35 μl stop buffer (1 M HCl and 0.4 M acetic acid). Released [^3H]acetic acid was extracted with 800 μl ethyl acetate and quantified by scintillation counting. Equal amounts of HDAC1 were immunoprecipitated as indicated by western blot analysis. Histone deacetylase 1 activity results are presented as mean±s.d. of three independent experiments on a single lysate. […] Finally, we measured the activities of different HDAC isotypes present in partially purified extract from rat liver using the fluorescent HDAC substrates MAL (unselective), B61 (selective for HDAC1, and to some extent also converted by HDAC3) and B12 (selective for HDAC6).

[2] = system: A2780 ovarian carcinoma cells; assay: A2780 tumour cell proliferation, MTT colorimetric assay; format: cell-based, human; conditions: Homo sapiens, A2780, 96 h, 4 days, mean±s.d.
Description: Control cells were treated with the combined respective vehicle.

[3] = system: tubulin acetylation and Hsp70 in A2780 ovarian carcinoma cells; assay: Western blot of acetylated tubulin and Hsp70 in A2780 cells (HDAC6 readout); format: cell-based, human; conditions: 24 h, western blot
Description: Human A2780 ovarian carcinoma cells were incubated with the indicated concentrations of HDAC inhibitors. Total cell lysates were prepared and analysed by SDS–PAGE. […] To control for equal loading, blots were stripped and re-probed with mouse monoclonal antiactin IgM (Ab-1, Oncogene Research products, Merck, Darmstadt, Germany). […] Protein–antibody complexes were then visualised by chemiluminescence (Pierce Chemical Co., Perbioscience, Erembodegem, Belgium) or fluorescence (Odyssey) according to manufacturer's instructions.
Total cell lysates were prepared and analysed by SDS–PAGE. Levels of acetylated H3 and tubulin, and of total levels of H3 and tubulin and of p21^waf1, cip1 and Hsp70 and c-raf protein, were detected using rabbit polyclonal and mouse monoclonal antibodies, followed by ECL detection as indicated in the Methods section. To control for equal loading, blots were stripped and re-probed with antibodies against actin and the nuclear protein Lamin B1. A representative experiment out of three is shown.

[4] = system: A2780 ovarian carcinoma cells; assay: Cell-cycle analysis, propidium iodide staining and FACS; format: cell-based, human
Description: Human A2780 ovarian carcinoma cells were seeded at 2 × 10^6 cells per 75-cm^2 flask and, after 24 h, incubated with the indicated concentration of test compound. To analyse cell-cycle distribution, sub-confluent cells were collected, centrifuged and washed with PBS. The cell pellets were re-suspended in citrate buffer and nuclei were stained with propidium iodide (Sigma-Aldrich, Bornem, Belgium) as described previously ([Vindelov et al, 1983]). Analysis was carried out using a BD-LSR flow cytometer (BD Biosciences, Erembodegem, Belgium) equipped with an argon laser (488 nm excitation). Cell-cycle profiles were analysed using WinList 3D version 4.0 and areas under the curve were calculated using ModFit LT version 3.1 (Verity Software House Inc.).
DNA content of nuclei was evaluated using propidium iodide staining followed by FACS analysis, and the number of cells in sub-G1, G1, S and G2M phase was calculated as a percentage of control. Results are expressed as % of total cells and a representative experiment out of three is shown.

[5] = system: A2780 ovarian carcinoma cells; assay: Annexin V staining (apoptosis), FACS; format: cell-based, human; conditions: 48 h, concentration-dependent
Description: Human A2780 ovarian carcinoma cells were seeded at 2 × 10^6 cells per 75-cm^2 flask and, after 24 h, incubated with the indicated concentration of test compound for 48 h. The cells were subsequently collected, centrifuged and washed with PBS. The cell pellets were stained with Annexin-V-FITC antibody and propidium iodide with a kit from PharMingen, BD Biosciences, Erembodegem, Belgium (cat 66121E).
Cells were stained with Annexin V (Pharmingen) and propidium iodide, and analysed by FACS. […] Membrane-damaged cells were defined as both Annexin V- and propidium iodide-positive. Shown are mean values±variation for two independent experiments. […] Green asterisks represent mitotic cells, while red arrows point at specific DNA fragmentation. (B) Rat Aortic Ring Assays were performed as described in the Methods section.

[6] = system: microvessel outgrowth from rat aortic rings; assay: Rat aortic ring assay (angiogenesis); format: cell-based, Sprague-Dawley rats; conditions: 192 h, 300 nM, 8 days, compared to controls, mean±s.e.m., read-out: inhibition of total microvessel area
Description: Briefly, thoracic aorta were freshly isolated from 1- to 2-month-old Sprague–Dawley rats and 1-mm-long sections (aortic rings) were embedded in fibrin gel clots in six-well plates. […] Test compounds were added at the indicated concentrations at day 0 and again together with fresh media on day 2 and day 5 of culture. The ability of experimental compounds to inhibit microvessel outgrowth was compared directly with vehicle-treated control rings. […] Microvessel area, expressed as pixels^2, was determined for each aortic ring and the per cent inhibition of microvessel area compared to control rings was calculated using the mean values for each treatment group. Statistical differences between experimental groups (five independent rings) were analysed by ANOVA and Dunnett's t-test, with a P-value of <0.05 or less considered statistically significant.

[7] = system: A2780 ovarian carcinoma xenograft; assay: A2780 ovarian xenograft, tumour growth; format: in vivo, mice; conditions: median tumour size at end of study
Description: (§1) All mice used in the in vivo studies were athymic male NMRI nu/nu mice purchased from Janvier (France) and were treated according to the ethical guidelines prescribed by UKCCCR. A2780 ovarian, HCT116 colon and H460 lung carcinoma cells were injected s.c. (10^7 cells per 200 μl) into the inguinal region of Nude mice. […] Tumour size was determined using caliper measurement and tumour volume was determined by using the formula: TV=(a^2 × b)/2 (in which a represents the width and b the length).
(§2) Mice were treated orally once daily (q.d.) between day 4 and 28 (A2780) or between day 4 and 32 (H460 and HCT116). (A) A2780 ovarian tumours were measured at least twice a week throughout the study, and results are represented as the median tumour size, expressed in mm^3, of each individual group (n=10). (B) Mice were treated orally q.d. at the indicated doses. Results are represented as the treated/control values (%) of the median tumour size (n=10) at the end of the study.

[8] = system: H460 lung carcinoma xenograft; assay: H460 lung xenograft, tumour growth; format: in vivo, mice; conditions: median tumour size at end of study
Description: as §1, §2

[9] = system: ALL, AML, CLL, CML, lymphoma and myeloma tumour cells; assay: cells; conditions: Homo sapiens, read-out: IC50 values, proliferation of haematological tumour cells (range over panel)
Description: The effect of HDAC inhibitors on cell proliferation was measured using an MTT (3-(4,5-dimethyl-2-thiazolyl)-2,5-diphenyl-2H-tetrazolium bromide)-based assay (Serva, Heidelberg, Germany). Cells were seeded in Falcon or NUNC 96-well culture plates (Life Technologies, Merelbeke, Belgium) in 100 μl culture medium and allowed to adhere to plastic for 18–48 h. Test compounds were dissolved in DMSO and further dilutions were made in culture medium, with final concentrations of DMSO never exceeding 0.1% (v v^−1), and incubated for 4 days. Proliferation of NSCLC was assessed using Alamar Blue-based assay. Cells were seeded in COSTAR 384-well culture plates in 45 μl culture medium and allowed to adhere to plastic for 24 h. Alamar blue was added after 72 h, with the exception of HCC-15, HCC-44, NCI-H2122 and NCI-H460, where Alamar blue was added after 90 h and OD values were measured at 4 days following compound exposure. Data are presented as mean±s.d. of three independent experiments.

O=C(NO)c1cnc(N2CCN(S(=O)(=O)c3ccc4ccccc4c3)CC2)nc1 [R306465]
IC50 [1]: 886 ± 85 nM | IC50 [2]: 39 ± 17 nM | concentration at which tubulin acetylation and Hsp70 levels increase [3]: 1 µM | G0–G1, % of total cells ([4]; 0.1 μM, 24 h): 44.6% | G2–M, % of total cells ([4]; 0.1 μM, 24 h): 28.3% | S-phase, % of total cells ([4]; 0.1 μM, 24 h): 27.1% | G0–G1, % of total cells ([4]; 0.1 μM, 48 h): 64.4% | G2–M, % of total cells ([4]; 0.1 μM, 48 h): 17.0% | S-phase, % of total cells ([4]; 0.1 μM, 48 h): 18.6% | G0–G1, % of total cells ([4]; 0.3 μM, 24 h): 76.5% | G2–M, % of total cells ([4]; 0.3 μM, 24 h): 7.8% | S-phase, % of total cells ([4]; 0.3 μM, 24 h): 15.7% | G0–G1, % of total cells ([4]; 0.3 μM, 48 h): 67.2% | G2–M, % of total cells ([4]; 0.3 μM, 48 h): 14.9% | S-phase, % of total cells ([4]; 0.3 μM, 48 h): 17.9% | G0–G1, % of total cells ([4]; 1 μM, 24 h): 55.4% | G2–M, % of total cells ([4]; 1 μM, 24 h): 39.2% | S-phase, % of total cells ([4]; 1 μM, 24 h): 5.4% | G0–G1, % of total cells ([4]; 1 μM, 48 h): 45.5% | G2–M, % of total cells ([4]; 1 μM, 48 h): 44.5% | S-phase, % of total cells ([4]; 1 μM, 48 h): 10.0% | concentration at which decrease in S phase with parallel increase in G1 phase was observed ([4]; 24 h incubation): 300 nM | concentration at which increase in the sub-G1 fraction was observed ([4]; 24 h incubation): 1 µM | concentration from which increase in sub-G1 phase was observed ([4]; 48 h incubation): ≥ 100 nM | percentage of cells positive for Annexin V [5]: significant increase | inhibition at 0.3 µM [6]: 67 ± 7% | T/C values (%) A2780 ovarian ([7]; 10 mpk p.o. q.d. day 4 to 28): 47% | T/C values (%) A2780 ovarian ([7]; 20 mpk p.o. q.d. day 4 to 28): 13% | T/C values (%) A2780 ovarian ([7]; 40 mpk p.o. q.d. day 4 to 28): 24% | T/C values (%) H460 lung ([8]; 10 mpk p.o. q.d. day 4 to 32): 56% | T/C values (%) H460 lung ([8]; 20 mpk p.o. q.d. day 4 to 32): 64% | T/C values (%) H460 lung ([8]; 40 mpk p.o. q.d. day 4 to 32): 31% | IC50 [9]: 15 to 486 nM
